Test results published in patent US7476675B2, “Quinolinone derivatives and uses thereof” (Roche Palo Alto LLC, priority 2003, dated 2009).
Structures can show the parent of a compound that is named as a salt.

How the values were obtained:
[1] = target: T1, recombinant human 5-HT6 receptor (Homo sapiens, UniProt P50406); test: Radioligand binding studies: competition for [3H]LSD binding in membranes of HEK293 cells expressing the receptor; conditions: [3H]LSD (5 nM), HEK293 cell membranes, 60 min at 37° C., pH 7.4; read-out: pKi for 5-HT6 (converted)
T1 construct: expressed in transfected cells
T1 sequence (P50406 whole entry): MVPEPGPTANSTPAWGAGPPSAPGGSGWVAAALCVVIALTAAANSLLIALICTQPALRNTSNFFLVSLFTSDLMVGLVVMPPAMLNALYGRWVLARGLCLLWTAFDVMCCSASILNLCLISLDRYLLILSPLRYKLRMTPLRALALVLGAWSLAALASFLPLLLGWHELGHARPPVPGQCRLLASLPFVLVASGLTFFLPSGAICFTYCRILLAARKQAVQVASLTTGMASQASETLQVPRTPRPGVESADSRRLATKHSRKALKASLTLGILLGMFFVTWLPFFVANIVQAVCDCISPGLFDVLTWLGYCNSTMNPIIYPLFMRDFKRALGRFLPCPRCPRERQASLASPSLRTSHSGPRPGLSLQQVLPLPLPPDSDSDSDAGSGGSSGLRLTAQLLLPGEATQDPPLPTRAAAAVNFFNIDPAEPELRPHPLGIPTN
Experimental: The binding activity of compounds of this invention in vitro was determined as follows. Duplicate determinations of ligand affinity are made by competing for binding of [^3H]LSD in cell membranes derived from HEK293 cells stably expressing recombinant human 5-HT6 receptor. This cell line was prepared by the method described by Monsma et al., Molecular Pharmacology, Vol. 43 pp. 320-327 (1993).
All determinations were made in assay buffer containing 50 mM Tris-HCl, 10 mM MgSO4, 0.5 mM EDTA, 1 mM ascorbic acid, pH 7.4 at 37° C., in a 250 microliter reaction volume. Assay tubes containing [^3H] LSD (5 nM), competing ligand, and membrane were incubated in a shaking water bath for 60 min. at 37° C., filtered onto Packard GF-B plates (pre-soaked with 0.3% PEI) using a Packard 96 well cell harvester and washed 3 times in ice cold 50 mM Tris-HCl. Bound [^3H] LSD was determined as radioactive counts per minute using Packard TopCount.
Displacement of [^3H]LSD from the binding sites was quantified by fitting concentration-binding data to a 4-parameter logistic equation:
[formula] where Hill is the Hill slope, [ligand] is the concentration of competing radioligand and IC50 is the concentration of radioligand producing half-maximal specific binding of radioligand. The specific binding window is the difference between the Bmax and the basal parameters.

| Structure (SMILES) | melting point [°C] | Ki [1] [nM] |
| --- | --- | --- |
| O=C1CCCc2ccccc2N1Cc1cccc(N2CCNCC2)c1 (as salt: maleate) [Compound 17, 1-(3-Piperazin-1-yl-benzyl)-1,3,4,5-tetrahydrobenzo[b]azepin-2-one] | 149 to 150 |  |
| COc1cc(CN2C(=O)CCc3ccccc32)cc(N2CCNCC2)c1 [Compound 4, 1-(3-Methoxy-5-piperazin-1-yl-benzyl)-3,4-dihydro-1H-quinolin-2-one] |  | ~1 |
